Measurements reported in patent publication US7037673B2, “Dipeptide production method, L-amino acid amide hydrolase used therein, and production method of L-amino acid amide hydrolase” (Ajinomoto Co., Inc., priority 2001, dated 2006).
Residues, ends and D or L forms follow the SMILES beside them.

System: L-alanine amide hydrolase
Assay: Production of L-alanyl-L-asparagine and L-alanyl-L-glutamine with purified enzyme
Format: biochemical, Corynebacterium glutamicum strain ATCC 13286
Conditions: 50 μmol L-alanine amide hydrochloride + 150 μmol L-asparagine or L-glutamine, 0.08 unit enzyme, 1 ml, pH 9.0, 30° C., 10 hours
From the text: Hereinafter, the present invention will be explained in more detail by way of examples. However, the present invention should not be considered to be limited to these examples.
The L-alanine amide hydrolase uniformly purified in Example 2 was allowed to act on L-alanine amide hydrochloride and L-asparagine or L-alanine amide hydrochloride and L-glutamine to produce L-alanyl-L-asparagine or L-alanyl-L-glutamine. In the case of obtaining L-alanyl-L-asparagine, 200 μmol of Tris-HCl buffer (pH 9.0), 50 μmol or L-alanine amide hydrochloride, 150 μmol of L-asparagine and enzyme liquid containing 0.08 unit of L-alanine amide hydrolase were added and mixed to a final volume of 1 ml. In the case of obtaining L-alanyl-L-glutamine, the reactants were mixed under the same conditions as in the case of L-alanyl-L-asparagine with the exception of using 150 μmol of L-glutamine instead of 150 μmol of L-asparagine. Control experiments were established for the case of using one of the substrates or setting the lot in which enzyme was not added. The reaction was carried out at a reaction temperature of 30° C. for 10 hours, and the results of quantifying the target product are shown in Table 3.

Row | SMILES | Product concentration [mM]
1 | C[C@H](N)C(=O)N[C@@H](CC(N)=O)C(=O)O [L-alanyl-L-asparagine] (H-Ala-Asn-OH) | 8.4
2 | C[C@H](N)C(=O)N[C@@H](CCC(N)=O)C(=O)O [L-alanyl-L-glutamine] (H-Ala-Gln-OH) | 7.7

System: His-Tag L-alanine amide hydrolase
Assay: Study of substrate specificity using His-Tag purified enzyme
Format: biochemical, Corynebacterium glutamicum strain ATCC 13286
Conditions: 100 mM L-alanine amide, 150 mM test amino acid, pH 9.0, enzyme 0.0045 U/ml, 25° C., 3 hours

Row | SMILES | peptide synthesized from L-alanine amide and test amino acid [mM]
3 | C[C@H](N)C(=O)N[C@@H](C)C(=O)O [L-alanyl-L-alanine] (H-Ala-Ala-OH) | 10.11
4 | C[C@H](N)C(=O)N[C@@H](CCCNC(=N)N)C(=O)O [L-alanyl-L-arginine] (H-Ala-Arg-OH) | 27.69
5 | C[C@H](N)C(=O)N[C@@H](CCC(=O)O)C(=O)O [L-alanyl-L-glutamate] (H-Ala-Glu-OH) | 1.20
6 | C[C@H](N)C(=O)N[C@@H](Cc1c[nH]cn1)C(=O)O [L-alanyl-L-histidine] (H-Ala-His-OH) | 12.52
7 | CC[C@H](C)[C@H](NC(=O)[C@H](C)N)C(=O)O [L-alanyl-L-isoleucine] (H-Ala-Ile-OH) | 14.11
8 | CC(C)C[C@H](NC(=O)[C@H](C)N)C(=O)O [L-alanyl-L-leucine] (H-Ala-Leu-OH) | 9.60
9 | C[C@H](N)C(=O)N[C@@H](CCCCN)C(=O)O [L-alanyl-L-lysine] (H-Ala-Lys-OH) | 18.83
10 | CSCC[C@H](NC(=O)[C@H](C)N)C(=O)O [L-alanyl-L-methionine] (H-Ala-Met-OH) | 14.49
11 | C[C@H](N)C(=O)N[C@@H](Cc1ccccc1)C(=O)O [L-alanyl-L-phenylalanine] | 13.42
12 | C[C@H](N)C(=O)N1CCC[C@H]1C(=O)O [L-alanyl-L-proline] (H-Ala-Pro-OH) | 0.81
13 | C[C@H](N)C(=O)N[C@@H](CO)C(=O)O [L-alanyl-L-serine] (H-Ala-Ser-OH) | 24.67
14 | C[C@H](N)C(=O)N[C@H](C(=O)O)[C@@H](C)O [L-alanyl-L-threonine] (H-Ala-Thr-OH) | 20.76
15 | C[C@H](N)C(=O)N[C@@H](Cc1c[nH]c2ccccc12)C(=O)O [L-alanyl-L-tryptophan] (H-Ala-Trp-OH) | 10.09
16 | C[C@H](N)C(=O)N[C@@H](Cc1ccc(O)cc1)C(=O)O [L-alanyl-L-tyrosine] (H-Ala-Tyr-OH) | 1.52
17 | CC(C)[C@H](NC(=O)[C@H](C)N)C(=O)O [L-alanyl-L-valine] (H-Ala-Val-OH) | 9.72
18 | C[C@H](N)C(=O)NCC(=O)O [L-alanyl-glycine] (H-Ala-Gly-OH) | 7.54

Same assay, conditions: 100 mM test amino acid amide, 150 mM L-glutamine, pH 9.0, enzyme 0.0045 U/ml, 25° C., 3 hours

Row | peptide produced from test amino acid amide and L-glutamine [mM] | SMILES
19 | 17.7 | NCC(=O)N[C@@H](CCC(N)=O)C(=O)O [glycyl-L-glutamine] (H-Gly-Gln-OH)
20 | 21.2 | NC(=O)CC[C@H](NC(=O)[C@@H](N)CC(=O)O)C(=O)O [α-L-aspartyl-glutamine] (H-Asp-Gln-OH)

System: not given
Assay: not given
Conditions: compared with L-glutamine; cited from earlier work

Row | SMILES | stability | water-solubility
21 | C[C@H](N)C(=O)N[C@@H](CCC(N)=O)C(=O)O [L-alanyl-L-glutamine] (H-Ala-Gln-OH) | higher | higher

System: L-alanine amide hydrolase
Assay: Measurement of activity of L-alanine amide hydrolase (L-alanyl-L-glutamine formation, HPLC)
Format: biochemical, Corynebacterium glutamicum strain ATCC 13286
Conditions: His-Tag purified enzyme
Experimental: Measurement of L-alanine amide enzyme activity was carried out by incubating a reaction mixture containing 50 mM L-alanine amide, 150 mM L-glutamine, 100 mM Tris-HCl buffer (pH 9.0), 10 mM EDTA and enzyme solution at 30° C. for 60 minutes followed by stopping the reaction by adding aqueous phosphoric acid (pH 1.5) equal to four volumes of the reaction mixture. The amount of L-alanyl-L-glutamine was determined by HPLC. For the unit of enzyme activity, enzyme activity that produces 1 μmol of L-alanyl-L-glutamine in 1 minute under these conditions was defined as 1 unit (U).
The conditions of HPLC used for analysis were as indicated below.
Mobile phase: (aqueous phosphoric acid solution (pH 2.1)), 2.5 mM sodium-1-octanesulfonate/methanol=10/1
Column temperature: 40° C.

Row | SMILES | production yield of Ala-Gln relative to L-alanine amide [%]
22 | C[C@H](N)C(=O)N[C@@H](CCC(N)=O)C(=O)O [L-alanyl-L-glutamine] (H-Ala-Gln-OH) | 7.2
